In brackets after ≈: the same amount, converted by molar mass.
How the values were obtained:
Yellow fever virus = test: Antiviral activity against Yellow fever virus infected in human Huh-7 cells assessed as inhibition of cytopathic effect by microscopy based analysis; format: functional, organism-based
[1] = Cytotoxicity against human Huh-7 cells; format: toxicity, cell-based
Zika virus = test: Antiviral activity against Zika virus infected in african green monkey Vero E6 cells assessed as inhibition of cytopathic effect by microscopy based analysis; format: functional, organism-based; settings: Vero C1008
[2] = Cytotoxicity against African green monkey Vero E6 cells; format: toxicity, cell-based, Vero C1008; settings: chlorocebus sabaeus
Chikungunya virus = test: Antiviral activity against CHIKV infected in African green monkey Vero A cells assessed as inhibition of cytopathic effect by microscopy based analysis; format: functional, organism-based
[3] = Cytotoxicity against African green monkey Vero A cells; format: toxicity, cell-based; settings: chlorocebus sabaeus
Enterovirus A71 = test: Antiviral activity against human EV71 infected in human RD cells assessed as inhibition of cytopathic effect by microscopy based analysis; format: functional, organism-based; settings: Enterovirus A
[4] = Cytotoxicity against human RD cells; format: toxicity, cell-based
Human rhinovirus sp. [5] = test: Antiviral activity against Human rhinovirus B14 infected in human HeLa-RH cells assessed as inhibition of cytopathic effect by microscopy based analysis; format: functional, organism-based
[6] = Cytotoxicity against human HeLa-RH cells; format: toxicity, cell-based
Human rhinovirus sp. [7] = test: Antiviral activity against Human rhinovirus A2 infected in human HeLa-RH cells assessed as inhibition of cytopathic effect by microscopy based analysis; format: functional, organism-based
Escherichia coli [8] = test: Antibacterial activity against Escherichia coli CIP 53154 assessed as reduction in bacterial growth by micro-broth dilution method; format: functional
Escherichia coli [9] = test: Bactericidal activity against Escherichia coli CIP 53154; format: functional
Pseudomonas aeruginosa [10] = test: Antibacterial activity against Pseudomonas aeruginosa CIP A22 assessed as reduction in bacterial growth by micro-broth dilution method; format: functional
Pseudomonas aeruginosa [11] = test: Bactericidal activity against Pseudomonas aeruginosa CIP A22; format: functional
Staphylococcus aureus [12] = test: Antibacterial activity against Staphylococcus aureus CIP 54127 assessed as reduction in bacterial growth by micro-broth dilution method; format: functional
Staphylococcus aureus [13] = test: Bactericidal activity against Staphylococcus aureus CIP 54127; format: functional
Enterococcus faecalis [14] = test: Antibacterial activity against Enterococcus faecalis assessed as reduction in bacterial growth by micro-broth dilution method; format: functional
Enterococcus faecalis [15] = test: Bactericidal activity against Enterococcus faecalis; format: functional
Escherichia coli [16] = test: Ratio of MBC to MIC for Escherichia coli CIP 53154; format: functional
Pseudomonas aeruginosa [17] = test: Ratio of MBC to MIC for Pseudomonas aeruginosa CIP A22; format: functional
Staphylococcus aureus [18] = test: Ratio of MBC to MIC for Staphylococcus aureus CIP 54127; format: functional
Enterococcus faecalis [19] = test: Ratio of MBC to MIC for Enterococcus faecalis; format: functional

| Structure (SMILES) | IC50 (Yellow fever virus) | CC50 [1] | IC50 (Zika virus) | CC50 [2] | IC50 (Chikungunya virus) | CC50 [3] | IC50 (Enterovirus A71) | CC50 [4] | MIC (Escherichia coli [8]) | MBC (Escherichia coli [9]) | MIC (Pseudomonas aeruginosa [10]) | MBC (Pseudomonas aeruginosa [11]) | MIC (Staphylococcus aureus [12]) | MBC (Staphylococcus aureus [13]) | MIC (Enterococcus faecalis [14]) | MBC (Enterococcus faecalis [15]) | Ratio (Escherichia coli [16]) | Ratio (Pseudomonas aeruginosa [17]) | Ratio (Staphylococcus aureus [18]) | Ratio (Enterococcus faecalis [19]) | other results |
| --- | --- | --- | --- | --- | --- | --- | --- | --- | --- | --- | --- | --- | --- | --- | --- | --- | --- | --- | --- | --- | --- |
| CCOP(=O)(OCC)C(Nc1ccccc1OC)c1cc(Cn2cc(Cn3c(=O)cc(C)c4cc(F)ccc43)nn2)ccc1O (stereo not drawn) | > 100 µM | 88 µM | > 100 µM | > 33.3 µM | > 100 µM | 40.8 µM | > 100 µM | > 100 µM | 1970 µM (≈ 1250 µg/mL) | 1970 µM (≈ 1250 µg/mL) | 1970 µM (≈ 1250 µg/mL) | 1970 µM (≈ 1250 µg/mL) | 250 µM (≈ 159 µg/mL) | 490 µM (≈ 311 µg/mL) | 60 µM (≈ 38.1 µg/mL) | 60 µM (≈ 38.1 µg/mL) | 1 | 1.99 | 1.96 | 1 | IC50 (Human rhinovirus sp. [5]): > 100 µM; CC50 [6]: > 100 µM; IC50 (Human rhinovirus sp. [7]): > 1.23 µM |
| CCOP(=O)(OCC)C(Nc1ccc(F)cc1)c1cc(Cn2cc(Cn3c(=O)cc(C)c4cc(F)ccc43)nn2)ccc1O (stereo not drawn) | > 100 µM | 29.3 µM | > 100 µM | > 100 µM | > 100 µM | > 100 µM | > 100 µM | > 100 µM | 1010 µM (≈ 630 µg/mL) | 1010 µM (≈ 630 µg/mL) | 8020 µM (≈ 5000 µg/mL) | 8020 µM (≈ 5000 µg/mL) | 500 µM (≈ 312 µg/mL) | 500 µM (≈ 312 µg/mL) | 130 µM (≈ 81.1 µg/mL) | 130 µM (≈ 81.1 µg/mL) | 1 | 2 | 1 | 1 | IC50 (Human rhinovirus sp. [5]): > 100 µM; CC50 [6]: > 100 µM; IC50 (Human rhinovirus sp. [7]): > 3.7 µM |
| CO[C@H]1/C=C/O[C@@]2(C)Oc3c(C)c(O)c4c(O)c(c(/C=N/N5CCN(C)CC5)c(O)c4c3C2=O)NC(=O)/C(C)=C\C=C\[C@H](C)[C@H](O)[C@@H](C)[C@@H](O)[C@@H](C)[C@H](OC(C)=O)[C@@H]1C [RIFAMPIN] | – | – | – | – | – | – | – | – | 300 µM (≈ 247 µg/mL) | 610 µM (≈ 502 µg/mL) | 610 µM (≈ 502 µg/mL) | 610 µM (≈ 502 µg/mL) | 80 µM (≈ 65.8 µg/mL) | 150 µM (≈ 123 µg/mL) | 300 µM (≈ 247 µg/mL) | 300 µM (≈ 247 µg/mL) | 2.03 | 2.03 | 1.88 | 1 | – |
| CCOP(=O)(OCC)C(Nc1ccc(C)cc1)c1cc(Cn2cc(Cn3c(=O)cc(C)c4cc(F)ccc43)nn2)ccc1O (stereo not drawn) | > 100 µM | > 100 µM | > 100 µM | > 100 µM | > 100 µM | > 33.3 µM | > 100 µM | > 100 µM | 930 µM (≈ 576 µg/mL) | 930 µM (≈ 576 µg/mL) | 7350 µM (≈ 4550 µg/mL) | 7350 µM (≈ 4550 µg/mL) | 240 µM (≈ 149 µg/mL) | 240 µM (≈ 149 µg/mL) | 60 µM (≈ 37.2 µg/mL) | 60 µM (≈ 37.2 µg/mL) | 1 | 2 | 1 | 1 | IC50 (Human rhinovirus sp. [5]): > 100 µM; CC50 [6]: > 100 µM; IC50 (Human rhinovirus sp. [7]): > 11.1 µM |
| CCOP(=O)(OCC)C(Nc1ccc(C)cc1)c1cc(Cn2cc(Cn3c(=O)cc(C)c4ccccc43)nn2)ccc1O (stereo not drawn) | > 100 µM | 27.9 µM | > 100 µM | > 100 µM | > 100 µM | > 100 µM | > 100 µM | > 100 µM | 520 µM (≈ 313 µg/mL) | 520 µM (≈ 313 µg/mL) | 4160 µM (≈ 2500 µg/mL) | 4160 µM (≈ 2500 µg/mL) | 520 µM (≈ 313 µg/mL) | 520 µM (≈ 313 µg/mL) | 70 µM (≈ 42.1 µg/mL) | 70 µM (≈ 42.1 µg/mL) | 1 | 2 | 1 | 1 | IC50 (Human rhinovirus sp. [5]): > 100 µM; CC50 [6]: > 100 µM; IC50 (Human rhinovirus sp. [7]): > 3.7 µM |
| CC1(C)S[C@@H]2[C@H](NC(=O)[C@H](N)c3ccccc3)C(=O)N2[C@H]1C(=O)O [AMPICILLIN] | – | – | – | – | – | – | – | – | 260 µM (≈ 90.8 µg/mL) | 530 µM (≈ 185 µg/mL) | 530 µM (≈ 185 µg/mL) | 530 µM (≈ 185 µg/mL) | 270 µM (≈ 94.3 µg/mL) | 270 µM (≈ 94.3 µg/mL) | 260 µM (≈ 90.8 µg/mL) | 260 µM (≈ 90.8 µg/mL) | 2.04 | 1.96 | 1 | 1 | – |
| CCN(CC)CCCC(C)Nc1ccnc2cc(Cl)ccc12 (stereo not drawn) [CHLOROQUINE] | – | – | – | – | 11 µM | 89 µM | – | – | – | – | – | – | – | – | – | – | – | – | – | – | – |

— ChEMBL document CHEMBL5505983, “Design, synthesis, and molecular modeling studies of novel 2-quinolone-1,2,3-triazole-α-aminophosphonates hybrids as dual antiviral and antibacterial agents” (Eur J Med Chem, 2024)
